Test results taken from US6383527B1, “Compositions comprising valerian extracts, isovaleric acid or derivatives thereof with a NSAID” (NPS Pharmaceuticals, Inc., priority 2001, dated 2002).

What was measured:
[1] = acid- and heat-labile; release two moles of isovaleric acid per mole; cited from earlier work
[2] = cited from earlier work
[3] = clinical; cited from earlier work
[4] = test system: excessive lower back pain; test: Case report Example 2: valerian preparation and ibuprofen for acute muscle strain from overexertion; format: in vivo, human; conditions: person; ibuprofen taken alone
Source text: These examples are provided for purposes of illustration and are not intended to be limiting of the invention. A person, complained of excessive lower back pain that interfered with sleeping and the general activities of daily living such as sitting or standing. They had injured their back while shoveling deep snow from their driveway and sidewalk. They had been taking ibuprofen but experiencing little relief. […] They continued to take the combination until their back healed and no longer gave their pain without medication.

[5] = test system: recurrent excessive lower back pain; test: Case report Example 1: valerian preparation and ibuprofen for recurrent, excessive lower back pain; format: in vivo, human; conditions: person; preparation taken by itself
Source text: These examples are provided for purposes of illustration and are not intended to be limiting of the invention. A person was complaining of recurrent excessive lower back pain from prior injuries. During a bout of lower back pain, they stated that […] could not sleep or sit comfortably and was in duress from the constant pain. […] It was stated that the ibuprofen would provide a decrease in inflammation and some analgesic therapy whereas the addition of the valerian and hops extract could provide a decrease in the muscle tone and analgesia as well, thereby allowing for relief from the pain. […] Their spouse stated that […] “acted like a new […]” because they were not grimacing and stooped from pain.

[6] = test system: CNS; conditions: in vivo; cited from earlier work

CC(=O)OCC1=CO[C@@H](OC(=O)CC(C)C)[C@H]2C1=C[C@H](OC(=O)CC(C)C)[C@]21CO1 [valtrate]
survival in the stomach following oral administration [1]: do not survive intact

CC(C)CC(N)=O [isovaleramide]
acute toxicity in vivo [2]: low acute toxicity | anxiolytic properties [3]: clinically useful anxiolytic properties

CC(C)Cc1ccc(C(C)C(=O)O)cc1 (stereo not drawn) [ibuprofen]
relief from lower back pain [4]: little relief | relief from lower back pain [5]: without any useful sense of relief

CC(=O)Oc1ccccc1C(=O)O [aspirin]
relief from lower back pain [5]: without any useful sense of relief

CCN(CC)C(=O)CC(C)C [N,N-Diethyl isovaleramide]
CNS properties [6]: CNS stimulant (convulsant) properties

CC(=O)O[C@H]1C[C@@H]2C(COC(=O)CC(C)C)=CO[C@@H](OC(=O)CC(C)C)[C@@H]2[C@@]12CO2 [didrovaltrate]
survival in the stomach following oral administration [1]: do not survive intact

CC(=O)Nc1ccc(O)cc1 [acetaminophen]
relief from lower back pain [5]: without any useful sense of relief
